A short description of data set [1]: Stability (heat, lyophilisation, storage, enzymes, pH). Type of data set: physicochemical. How it is done:
BuGro™ and the individual activity Peaks 1, 2 and 3 are each stable to 60 minutes boiling when in a heat-stable buffer such as 50 mM Tris-HCl, pH 7.5 or phosphate buffered saline (PBS). All are fully stable to lyophilisation, and if maintained in a lyophilised form, crude BuGro™ is 90-95% stable to storage at 4° C. for at least 2 years.

A further data set deals with H. alvei. Nature of the data set: Effect of additions on synthesis of BuGro activity by H. alvei in M9 minimal media. It counts as cell-based, Hafnia alvei. As to conditions: added at inoculum stage to H. alvei M9 culture: 5% supernatant (approx. 50 units/ml) or 100 μM norepinephrine; listed as NE. As to the method:
Therefore, H. alvei was inoculated at 2×10^6 CFU/ml into M9 minimal media supplemented with 0.4% (w/v) glucose only (ie no addition, N/A), or with 5% culture supernatant from a previous H. alvei M9 culture (approximately 50 units/ml) (HA), or with 100 μM norepinephrine (NE). The cultures were incubated at 37° C. in a rotatory shaking incubator for 18 hrs (final cell density: 2.17, 2.32 and 2.39×10^8 CFU/ml). Bacteria were removed by centrifugation at 10,000 g for 15 minutes, and the resulting culture supernatant was sterilised by passage through a 0.2 micron stericup filter. The sterile supernatant was assayed at various volumes using test strain E. coli E2348/69 inoculated at 10^2 CFU/ml into serum-SAPI media and incubated statically for 17 hrs at 37° C. in a humidified CO2 incubator. Growth levels were measured using Luria agar and pour plate analysis.

The next data set deals with E. coli. As to conditions: serum-based media; Table 2, prior art WO 98/53047; cited from earlier work.

Turning to `O=C(N[C@H]1COC(=O)[C@@H](NC(=O)c2cccc(O)c2O)COC(=O)[C@@H](NC(=O)c2cccc(O)c2O)COC1=O)c1cccc(O)c1O` [enterobactin], in data set [1], the “stability once synthesised in minimal media such as M9” value is recorded as “highly unstable”. For `NC[C@H](O)c1ccc(O)c(O)c1` [norepinephrine], the “effect on synthesis of BuGro activity” value in the data set with H. alvei is on record as “not induced”. The “effect on Bacxell synthesis” value in the data set on E. coli is 4. Induced by norepinephrine, but also.
